From patent US7329652B2, “Diaminotriazole compounds useful as protein kinase inhibitors” (Vertex Pharamaceuticals Incorporated, priority 2004, dated 2008)

What was measured:
[1] = target: JAK-2 enzyme (Homo sapiens, UniProt O60674); assay: JAK2 inhibition assay (radiometric 33P filter assay); format: biochemical; conditions: 15 μM poly(Glu)4Tyr, 12 μM ATP; read-out: JAK2 inhibition data (Ki)
Experimental: (§1) Compounds were screened for their ability to inhibit JAK using the assay shown below. Reactions were carried out in a kinase buffer containing 100 mM HEPES (pH 7.4), 1 mM DTT, 10 mM MgCl2, 25 mM NaCl, and 0.01% BSA.
(§2) Substrate concentrations in the assay were 5 μM ATP (200 uCi/μmole ATP) and 1 μM poly(Glu)4Tyr. Reactions were carried out at 25° C. and 1 nM JAK3.
(§3) To each well of a 96 well polycarbonate plate was added 1.5 μl of a candidate JAK3 inhibitor along with 50 μl of kinase buffer containing 2 μM poly(Glu)4Tyr and 10 μM ATP. This was then mixed and 50 μl of kinase buffer containing 2 nM JAK3 enzyme was added to start the reaction. After 20 minutes at room temperature (25° C.), the reaction was stopped with 50 μl of 20% trichloroacetic acid (TCA) that also contained 0.4 mM ATP. The entire contents of each well were then transferred to a 96 well glass fiber filter plate using a TomTek Cell Harvester. After washing, 60 μl of scintillation fluid was added and ^33P incorporation detected on a Perkin Elmer TopCount.
The assays were as described above in Example 25 except that JAK-2 enzyme was used, the final poly(Glu)4Tyr concentration was 15 μM, and final ATP concentration was 12 μM.

[2] = target: T1, JAK3 (Homo sapiens, UniProt P52333); assay: JAK3 inhibition assay (radiometric 33P filter assay); format: biochemical; conditions: 1 μM poly(Glu)4Tyr, 5 μM ATP, 1 nM JAK3, 25° C.; read-out: JAK3 inhibition data (Ki)
T1 sequence (P52333 1-1124): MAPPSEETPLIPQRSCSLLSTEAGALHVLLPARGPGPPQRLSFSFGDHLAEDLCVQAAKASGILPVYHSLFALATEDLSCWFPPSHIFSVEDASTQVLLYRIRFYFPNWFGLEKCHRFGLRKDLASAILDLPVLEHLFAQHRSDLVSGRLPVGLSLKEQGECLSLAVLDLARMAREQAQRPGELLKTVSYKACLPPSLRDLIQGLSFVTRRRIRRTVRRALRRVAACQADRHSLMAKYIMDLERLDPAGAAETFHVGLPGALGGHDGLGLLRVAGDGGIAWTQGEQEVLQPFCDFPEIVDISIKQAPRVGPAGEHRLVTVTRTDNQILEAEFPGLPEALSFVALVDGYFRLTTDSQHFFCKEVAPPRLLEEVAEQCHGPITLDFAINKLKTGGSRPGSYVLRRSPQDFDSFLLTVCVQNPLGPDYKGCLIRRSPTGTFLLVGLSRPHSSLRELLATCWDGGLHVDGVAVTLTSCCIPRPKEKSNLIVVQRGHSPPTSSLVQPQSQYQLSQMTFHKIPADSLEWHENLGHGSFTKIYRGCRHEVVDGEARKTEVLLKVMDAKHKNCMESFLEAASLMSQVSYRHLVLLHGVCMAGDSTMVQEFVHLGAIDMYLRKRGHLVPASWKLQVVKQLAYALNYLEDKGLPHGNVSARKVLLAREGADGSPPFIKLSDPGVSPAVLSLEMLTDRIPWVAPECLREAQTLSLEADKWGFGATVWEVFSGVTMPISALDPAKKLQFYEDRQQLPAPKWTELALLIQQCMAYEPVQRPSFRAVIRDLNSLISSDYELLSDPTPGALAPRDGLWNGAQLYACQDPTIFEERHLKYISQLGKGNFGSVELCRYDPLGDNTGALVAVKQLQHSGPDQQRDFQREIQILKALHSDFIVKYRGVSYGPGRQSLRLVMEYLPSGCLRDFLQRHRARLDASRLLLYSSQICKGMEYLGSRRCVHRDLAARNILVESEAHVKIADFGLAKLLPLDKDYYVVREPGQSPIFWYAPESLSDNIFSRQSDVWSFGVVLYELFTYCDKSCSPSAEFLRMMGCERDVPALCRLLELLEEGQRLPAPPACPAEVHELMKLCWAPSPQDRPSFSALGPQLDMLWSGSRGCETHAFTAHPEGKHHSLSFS
Experimental: as §1, §2, §3

JAK-2 enzyme, sequence (O60674 whole entry, species assumed): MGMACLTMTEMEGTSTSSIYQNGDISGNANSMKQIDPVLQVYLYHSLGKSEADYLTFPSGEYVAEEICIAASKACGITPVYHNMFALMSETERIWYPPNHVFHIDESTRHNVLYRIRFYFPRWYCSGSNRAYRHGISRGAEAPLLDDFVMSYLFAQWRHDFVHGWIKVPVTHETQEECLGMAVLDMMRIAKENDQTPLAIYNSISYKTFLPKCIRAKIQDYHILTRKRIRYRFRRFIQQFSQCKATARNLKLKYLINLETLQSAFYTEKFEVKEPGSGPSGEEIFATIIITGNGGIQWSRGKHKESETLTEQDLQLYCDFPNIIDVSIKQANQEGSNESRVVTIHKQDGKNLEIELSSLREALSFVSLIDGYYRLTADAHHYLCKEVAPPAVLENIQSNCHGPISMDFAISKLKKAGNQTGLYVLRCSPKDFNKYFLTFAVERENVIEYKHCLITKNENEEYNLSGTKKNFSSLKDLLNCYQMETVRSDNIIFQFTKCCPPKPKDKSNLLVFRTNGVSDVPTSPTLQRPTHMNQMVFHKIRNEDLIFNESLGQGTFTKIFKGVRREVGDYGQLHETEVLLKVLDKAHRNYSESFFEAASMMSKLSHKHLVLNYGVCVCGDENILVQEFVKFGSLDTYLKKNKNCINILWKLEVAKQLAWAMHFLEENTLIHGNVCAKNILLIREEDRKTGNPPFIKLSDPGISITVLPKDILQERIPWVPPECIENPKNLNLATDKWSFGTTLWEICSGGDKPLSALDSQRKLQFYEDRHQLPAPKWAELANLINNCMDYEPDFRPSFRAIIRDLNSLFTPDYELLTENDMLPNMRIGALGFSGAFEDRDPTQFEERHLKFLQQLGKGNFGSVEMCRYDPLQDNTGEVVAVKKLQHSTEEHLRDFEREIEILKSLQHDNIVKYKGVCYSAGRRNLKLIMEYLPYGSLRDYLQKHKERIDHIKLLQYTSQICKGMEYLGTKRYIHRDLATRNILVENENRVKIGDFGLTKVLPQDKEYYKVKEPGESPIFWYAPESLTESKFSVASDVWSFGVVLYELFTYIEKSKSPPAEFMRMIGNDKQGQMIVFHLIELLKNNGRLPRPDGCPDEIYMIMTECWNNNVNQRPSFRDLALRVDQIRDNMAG

## CC(=O)N1[C@H](C)CN(c2cc(-n3nc(Nc4ccc(N5CCN(C(=O)Nc6c(F)cccc6F)CC5)cc4)nc3N)ncn2)C[C@@H]1C [Compound 66]
[1]
  Ki: < 0.05 µM
[2]
  Ki: < 0.05 µM

## CCNC(=O)Nc1ccc(Nc2nc(N)n(-c3cc(N4C[C@@H](C)N(C(C)=O)[C@@H](C)C4)ncn3)n2)cc1 [Compound 67]
[1]
  Ki: < 0.05 µM
[2]
  Ki: < 0.05 µM

## CCCNC(=O)Nc1ccc(Nc2nc(N)n(-c3cc(N4C[C@@H](C)N(C(C)=O)[C@@H](C)C4)ncn3)n2)cc1 [Compound 68]
[1]
  Ki: < 0.05 µM
[2]
  Ki: < 0.05 µM

## CC(=O)N1[C@H](C)CN(c2cc(-n3nc(Nc4ccc(NC(=O)NC(C)C)cc4)nc3N)ncn2)C[C@@H]1C [Compound 69]
[1]
  Ki: < 0.05 µM
[2]
  Ki: < 0.05 µM

## CC(=O)N1[C@H](C)CN(c2cc(-n3nc(Nc4ccc(NC(=O)NC(C)(C)C)cc4)nc3N)ncn2)C[C@@H]1C [Compound 70]
[1]
  Ki: < 0.05 µM
[2]
  Ki: < 0.05 µM

## CC(=O)N1[C@H](C)CN(c2cc(-n3nc(Nc4ccc(NC(=O)NC5CCCCC5)cc4)nc3N)ncn2)C[C@@H]1C [Compound 71]
[1]
  Ki: < 0.05 µM
[2]
  Ki: < 0.05 µM

## CCOC(=O)CCNC(=O)Nc1ccc(Nc2nc(N)n(-c3cc(N4C[C@@H](C)N(C(C)=O)[C@@H](C)C4)ncn3)n2)cc1 [Compound 72]
[1]
  Ki: < 0.05 µM
[2]
  Ki: < 0.05 µM

## CC(=O)N1[C@H](C)CN(c2cc(-n3nc(Nc4ccc(NC(=O)Nc5c(F)cccc5F)cc4)nc3N)ncn2)C[C@@H]1C [Compound 73]
[1]
  Ki: < 0.05 µM
[2]
  Ki: < 0.05 µM

## CC(=O)N1[C@H](C)CN(c2cc(-n3nc(Nc4ccc(NC(=O)Nc5ccc(C(F)(F)F)cc5)cc4)nc3N)ncn2)C[C@@H]1C [Compound 74]
[1]
  Ki: < 0.05 µM
[2]
  Ki: < 0.05 µM

## COC(=O)Nc1ccc(Nc2nc(N)n(-c3cc(N4C[C@@H](C)N(C(C)=O)[C@@H](C)C4)ncn3)n2)cc1 [Compound 75]
[1]
  Ki: < 0.05 µM
[2]
  Ki: < 0.05 µM

## CCOC(=O)Nc1ccc(Nc2nc(N)n(-c3cc(N4C[C@@H](C)N(C(C)=O)[C@@H](C)C4)ncn3)n2)cc1 [Compound 76]
[1]
  Ki: < 0.05 µM
[2]
  Ki: < 0.05 µM

## CCCOC(=O)Nc1ccc(Nc2nc(N)n(-c3cc(N4C[C@@H](C)N(C(C)=O)[C@@H](C)C4)ncn3)n2)cc1 [Compound 77]
[1]
  Ki: < 0.05 µM
[2]
  Ki: < 0.05 µM

## CC(=O)N1[C@H](C)CN(c2cc(-n3nc(Nc4ccc(NC(=O)OC(C)C)cc4)nc3N)ncn2)C[C@@H]1C [Compound 78]
[1]
  Ki: < 0.05 µM
[2]
  Ki: < 0.05 µM

## CC(=O)N1[C@H](C)CN(c2cc(-n3nc(Nc4ccc(NC(=O)OCC(C)C)cc4)nc3N)ncn2)C[C@@H]1C [Compound 79]
[1]
  Ki: < 0.05 µM
[2]
  Ki: < 0.05 µM

## CC(=O)N1[C@H](C)CN(c2cc(-n3nc(Nc4ccc(NC(=O)OCC(C)(C)C)cc4)nc3N)ncn2)C[C@@H]1C [Compound 80]
[1]
  Ki: < 0.05 µM
[2]
  Ki: < 0.05 µM

## CC(=O)N1[C@H](C)CN(c2cc(-n3nc(Nc4ccc(NC(=O)Oc5ccc(C)cc5)cc4)nc3N)ncn2)C[C@@H]1C [Compound 81]
[1]
  Ki: < 0.05 µM
[2]
  Ki: < 0.05 µM

## CC(=O)N1[C@H](C)CN(c2cc(-n3nc(Nc4ccc(NC(=O)O[C@H]5C[C@H](C)CC[C@H]5C(C)C)cc4)nc3N)ncn2)C[C@@H]1C [Compound 82]
[1]
  Ki: < 0.05 µM
[2]
  Ki: 0.05 to 0.5 µM

## CC(=O)N1[C@H](C)CN(c2cc(-n3nc(Nc4ccc(NC(=O)OC(C)(C)C)cc4)nc3N)ncn2)C[C@@H]1C [Compound 84]
[1]
  Ki: < 0.05 µM
[2]
  Ki: < 0.05 µM

## CCCNC(=O)Nc1ccc(Nc2nc(N)n(-c3cc(N4CCCN(C(C)=O)CC4)ncn3)n2)cc1 [Compound 85]
[1]
  Ki: < 0.05 µM
[2]
  Ki: < 0.05 µM

## CC(=O)N1CCCN(c2cc(-n3nc(Nc4ccc(NC(=O)NC(C)C)cc4)nc3N)ncn2)CC1 [Compound 86]
[1]
  Ki: < 0.05 µM
[2]
  Ki: < 0.05 µM

## CC(=O)N1CCCN(c2cc(-n3nc(Nc4ccc(NC(=O)NC(C)(C)C)cc4)nc3N)ncn2)CC1 [Compound 87]
[1]
  Ki: < 0.05 µM
[2]
  Ki: < 0.05 µM

## CC(=O)N1CCCN(c2cc(-n3nc(Nc4ccc(NC(=O)NC5CCCCC5)cc4)nc3N)ncn2)CC1 [Compound 88]
[1]
  Ki: < 0.05 µM
[2]
  Ki: < 0.05 µM

## CCOC(=O)CCNC(=O)Nc1ccc(Nc2nc(N)n(-c3cc(N4CCCN(C(C)=O)CC4)ncn3)n2)cc1 [Compound 89]
[1]
  Ki: < 0.05 µM
[2]
  Ki: < 0.05 µM

## COC(=O)Nc1ccc(Nc2nc(N)n(-c3cc(N4CCCN(C(C)=O)CC4)ncn3)n2)cc1 [Compound 90]
[1]
  Ki: < 0.05 µM
[2]
  Ki: < 0.05 µM

## CCOC(=O)Nc1ccc(Nc2nc(N)n(-c3cc(N4CCCN(C(C)=O)CC4)ncn3)n2)cc1 [Compound 91]
[1]
  Ki: < 0.05 µM
[2]
  Ki: < 0.05 µM

## CCCOC(=O)Nc1ccc(Nc2nc(N)n(-c3cc(N4CCCN(C(C)=O)CC4)ncn3)n2)cc1 [Compound 92]
[1]
  Ki: < 0.05 µM
[2]
  Ki: < 0.05 µM

## CC(=O)N1CCCN(c2cc(-n3nc(Nc4ccc(NC(=O)OC(C)C)cc4)nc3N)ncn2)CC1 [Compound 93]
[1]
  Ki: < 0.05 µM
[2]
  Ki: < 0.05 µM

## CC(=O)N1CCCN(c2cc(-n3nc(Nc4ccc(NC(=O)OCC(C)C)cc4)nc3N)ncn2)CC1 [Compound 94]
[1]
  Ki: < 0.05 µM
[2]
  Ki: < 0.05 µM

## CC(=O)N1CCCN(c2cc(-n3nc(Nc4ccc(NC(=O)OCC(C)(C)C)cc4)nc3N)ncn2)CC1 [Compound 95]
[1]
  Ki: < 0.05 µM
[2]
  Ki: < 0.05 µM

## CC(=O)N1CCCN(c2cc(-n3nc(Nc4ccc(NC(=O)Oc5ccc(C)cc5)cc4)nc3N)ncn2)CC1 [Compound 96]
[1]
  Ki: < 0.05 µM
[2]
  Ki: < 0.05 µM

## CC(=O)N1CCCN(c2cc(-n3nc(Nc4ccc(NC(=O)O[C@H]5C[C@H](C)CC[C@H]5C(C)C)cc4)nc3N)ncn2)CC1 [Compound 97]
[1]
  Ki: 0.05 to 0.5 µM
[2]
  Ki: 0.05 to 0.5 µM

## CC(=O)N1CCCN(c2cc(-n3nc(Nc4ccc(NC(=O)O[C@@H]5C[C@@H](C)CC[C@@H]5C(C)C)cc4)nc3N)ncn2)CC1 [Compound 98]
[1]
  Ki: 0.05 to 0.5 µM
[2]
  Ki: 0.05 to 0.5 µM

## CC(=O)N1[C@H](C)CN(c2cc(-n3nc(Nc4ccc(N)cc4)nc3N)ccn2)C[C@@H]1C [Compound 99]
[1]
  Ki: < 0.05 µM
[2]
  Ki: < 0.05 µM

## CC(=O)N1[C@H](C)CN(c2cc(-n3nc(Nc4ccc(NC(=O)OCC(C)C)cc4)nc3N)ccn2)C[C@@H]1C [Compound 100]
[1]
  Ki: < 0.05 µM
[2]
  Ki: < 0.05 µM

## CCOC(=O)Nc1ccc(Nc2nc(N)n(-c3ccnc(N4C[C@@H](C)N(C(C)=O)[C@@H](C)C4)c3)n2)cc1 [Compound 101]
[1]
  Ki: < 0.05 µM
[2]
  Ki: < 0.05 µM

## CCCOC(=O)Nc1ccc(Nc2nc(N)n(-c3ccnc(N4C[C@@H](C)N(C(C)=O)[C@@H](C)C4)c3)n2)cc1 [Compound 102]
[1]
  Ki: < 0.05 µM
[2]
  Ki: < 0.05 µM

## CC(=O)N1[C@H](C)CN(c2cc(-n3nc(Nc4ccc(NC(=O)OC(C)C)cc4)nc3N)ccn2)C[C@@H]1C [Compound 103]
[1]
  Ki: < 0.05 µM
[2]
  Ki: < 0.05 µM

## CC(=O)N1[C@H](C)CN(c2cc(-n3nc(Nc4ccc(NC(=O)OCC(C)(C)C)cc4)nc3N)ccn2)C[C@@H]1C [Compound 104]
[1]
  Ki: < 0.05 µM
[2]
  Ki: < 0.05 µM

## CCNC(=O)Nc1ccc(Nc2nc(N)n(-c3ccnc(N4C[C@@H](C)N(C(C)=O)[C@@H](C)C4)c3)n2)cc1 [Compound 105]
[1]
  Ki: < 0.05 µM
[2]
  Ki: < 0.05 µM

## CCCNC(=O)Nc1ccc(Nc2nc(N)n(-c3ccnc(N4C[C@@H](C)N(C(C)=O)[C@@H](C)C4)c3)n2)cc1 [Compound 106]
[1]
  Ki: < 0.05 µM
[2]
  Ki: < 0.05 µM

## CC(=O)N1[C@H](C)CN(c2cc(-n3nc(Nc4ccc(NC(=O)NC(C)C)cc4)nc3N)ccn2)C[C@@H]1C [Compound 107]
[1]
  Ki: < 0.05 µM
[2]
  Ki: < 0.05 µM
